These results are taken from patent US8163287B2, “Combination therapy of her expressing tumors” (Genentech, Inc., priority 2005, dated 2012).

Data set [1] relates to human lung, breast and ovarian cancer xenograft models. The experiment in a line: Antitumor activity in human cancer xenograft models (26 tumor xenografts). The class given is in vivo, NMRI nu/nu nude mice. Particulars: for tumors responsive to both erlotinib and pertuzumab: of 26 tumors (12%); for tumors that did not respond to treatment with either pertuzumab or erlotinib: of the 26 tumors tested (42%), pertuzumab i.p. 100 mg/kg, erlotinib orally 25 mg/kg. An excerpt: (§1) The tumor models were established by implanting tumor tissues obtained from human patients into randomized NMRI nu/nu nude mice (Oncotest GmbH, Freiburg, Germany) and tumors were propagated until stable tumor growth behavior was observed. After removal of the tumor from the donor mice, the tumor was cut into fragments (2 mm diameter) and placed in RPMI 1640 culture medium until subcutaneous implantation in the mice. The tumor fragments (two per mouse) were transplanted by tweezers. The mice were monitored daily.
(§2) The substance was diluted with a buffer containing 10 mM L-histidine, 240 mM sucrose, 0.02% polysorbate 20 pH 6 (HCl). The solutions were prepared fresh daily. Erlotinib was delivered as a ready-to-use formulation dissolved in 6% captisol.
Erlotinib was administered orally (25 mg/kg). The control mice received the vehicle by the same procedure and on the same schedule as the test compound.
(§3) The antitumor effect was evaluated following maximum tumor inhibition versus the control group.
Tumor volumes were determined by two-dimensional measurement with a caliper at the day of randomization (day 0) and then 2-3 times weekly. The tumor volume was calculated using the following formula: Tumor Volume=(a×b^2)×0.5,
where a and b represent two perpendicular tumor diameters, a=length (longer diameter), b=width (shorter diameter). All mice of a treatment group were sacrificed when the tumors reached mean diameters of approximately 16 mm.
Relative tumor volumes (RTV) were calculated for each individual tumor, by dividing the tumor volume on day X (Vx) by the tumor volume on day 0 (V0) multiplied by 100%. The tumor volume of a treatment group was expressed as the median RTV of all mice of the group. Median RTV volumes were used for drawing growth curves and treatment evaluation.
Optimal tumor growth inhibition at a particular day within the experimental period was calculated from the median RTV values of the test versus control groups multiplied by 100% (T/C 100%).
Relative tumor volume (Tx/T0) was defined as the median relative tumor volume of the test group on day X divided by the medium relative tumor volume of the test group on day 0, multiplied by 100.
T/C % and Tx/T0 were used for activity rating of the levels of efficacy, which were defined as follows: […]
On the technique in general: Xenograft models place foreign cells or tissue in a host animal.

The subject of data set [2] is lung adenocarcinoma designated LXFA 629. The experiment in a line: Antitumor activity in the LXFA 629 xenograft. Type of data set: in vivo, NMRI nu/nu nude mice. Particulars: each agent alone; pertuzumab i.p. 100 mg/kg, erlotinib orally 25 mg/kg.
Excerpt: as §1, §2
Erlotinib was administered orally (25 mg/kg). […]
as §3
Tumor volumes were determined by two-dimensional measurement with a caliper at the day of randomization (day 0) and then 2-3 times weekly. The tumor volume was calculated using the following formula: Tumor Volume=(a×b^2)×0.5, […]
Relative tumor volumes (RTV) were calculated for each individual tumor, by dividing the tumor volume on day X (Vx) by the tumor volume on day 0 (V0) multiplied by 100%. The tumor volume of a treatment group was expressed as the median RTV of all mice of the group. […]

For data set [3], the system named is incurable, locally advanced, recurrent or metastatic solid tumors. Particulars: cited from earlier work.
The conditions of data set [4]: cited from earlier work.

As to `C#Cc1cccc(Nc2ncnc3cc(OCCOC)c(OCCOC)cc23)c1` [erlotinib, N-(3-ethynylphenyl)-6,7-bis(2-methoxyethoxy)-4-quinazolinamine], the “NSCLC tumors that responded to erlotinib but not to pertuzumab” value in data set [1] (NSCLC only, of 21 (23%)) is on record as 5 tumors. Moreover, the “NSCLC tumors with no response to pertuzumab or erlotinib monotherapy” value in data set [1] (NSCLC only, out of the 21 tumors tested (43%)) was 9 tumors. Besides, in data set [1] (monotherapy), the “tumors responsive to both erlotinib and pertuzumab” value turned out to be 3 tumors; the “tumors that did not respond to treatment with either pertuzumab or erlotinib” value came out at 11 tumors. In data set [1] (monotherapy, of 26 tumors (27%)), the “tumors moderately responsive to erlotinib, but not pertuzumab” value was determined as 7 tumors. For the same compound, the “activity rating (response to monotherapy)” value in data set [2] is listed as “moderate response”.
Regarding “pertuzumab: antibody comprising the light and heavy chain amino acid sequences of SEQ ID NOS. 11 and 12; HER dimerization inhibitor”, in data set [3] (Phase I, single agent), the confirmed partial responses result is “Two”. For the same compound, in data set [3] (of 20 patients evaluable for response), the tumor regression achieved was 3 patients. For the same compound, the tolerability entry in data set [3] (patients, intravenously every 3 weeks) is reported as “generally well tolerated”. Further, in data set [4] (doses of 2.0-15 mg/kg), the “pharmacokinetics (dose linearity)” value was “linear”. Besides, in data set [4] (patients), the antibodies to pertuzumab entry is recorded as “not detected”. The “NSCLC tumors that responded to pertuzumab but not erlotinib” value in data set [1] (NSCLC only, of 21 (14%)) came to 3 tumors. In data set [1] (monotherapy), the “tumors responsive to both erlotinib and pertuzumab” value is listed as 3 tumors; the “tumors that did not respond to treatment with either pertuzumab or erlotinib” value turned out to be 11 tumors.
